{
  "source": "patent US20250170104A1",
  "about": "“INHIBITORS OF PSEUDOMONAS AERUGINOSA VIRULENCE FACTOR Lasß” (priority 2022, published 2025)",
  "test_system": "P. aeruginosa PA-14",
  "assay": "MIC determination assay / antibacterial activity",
  "assay_type": "cell-based",
  "settings": "Pseudomonas aeruginosa, PA14",
  "description": "Assays regarding the determination of the minimum inhibitory concentration (MIC) were performed as described previously (Elgaher W A M, Fruth M, Groh M, Haupenthal J, Hartmann R W. Expanding the scaffold for bacterial RNA polymerase inhibitors: design, synthesis and structure-activity relationships of ureido-heterocyclic-carboxylic acids. RSC Adv. 2013 Dec. 3; 4(5):2177-94). The experiments were based on the P. aeruginosa strain PA14. For the case that no MIC value could be determined due to activity reasons, percentage (%) inhibition at 100 μM (or lower, depending on the solubility of the compounds) was calculated. The OD600 was measured 0 and 16 h after inhibitor addition in a CLARIOstar Platereader (BMG Labtech, Ortenberg, Germany).",
  "data": [
    {"smiles": "CC(C)CC(C(=O)NO)C(=O)Nc1ccc(Cn2cc(CNS(=O)(=O)CC(C)C)nn2)cc1", "note": "(stereo not shown) [Compound 169, 2-(Hydroxycarbamoyl)-N-[4-[[4-[(isobutylsulfonylamino)methyl]triazol-1-yl]methyl]phenyl]-4-methyl-pentanamide]", "values": [
      {"measurement": "IC50", "value": "> 100", "unit": "µM"}
    ]}
  ]
}
